Patent publication US9296732B2, “Substituted benzamides and their uses” (The Board of Trustees of the Leland Stanford Junior …, priority 2012, dated 2016)

Tested on: not given
Assay: not given
Details: not given
`Cc1ccc(S(=O)(=O)Cc2nc(-c3ccc(C(=O)Nc4cccnc4)cc3)oc2C)cc1` [Example 1, 4-(5-Methyl-4-{[(4-methylphenyl)sulfonyl]methyl}-1,3-oxazol-2-yl)-N-(3-pyridinyl)benzamide] gave a melting point of 248 to 250 °C. For `Cc1ccc(S(=O)(=O)Cc2nc(-c3ccc(C(=O)Nc4ccncc4)cc3)oc2C)cc1` [Example 2, 4-(5-Methyl-4-{[(4-methylphenyl)sulfonyl]methyl}-1,3-oxazol-2-yl)-N-(4-pyridinyl)benzamide], the melting point was 229 to 231 °C. Work on `Cc1ccc(S(=O)(=O)Cc2nc(-c3ccc(C(=O)N(C)c4cccnc4)cc3)oc2C)cc1` [Example 3, N-Methyl-4-(5-methyl-4-{[(4-methylphenyl)sulfonyl]methyl}-1,3-oxazol-2-yl)-N-(3-pyridinyl)benzamide] yielded a melting point of 195 to 197 °C. `Cc1ccc(S(=O)(=O)Cc2nc(-c3ccc(C(=O)NCc4ccccn4)cc3)oc2C)cc1` [Example 4, 4-(5-Methyl-4-{[(4-methylphenyl)sulfonyl]methyl}-1,3-oxazol-2-yl)-N-(2-pyridinylmethyl)benzamide] gave a melting point of 154 to 155 °C. Compound `Cc1ccc(S(=O)(=O)Cc2nc(-c3ccc(C(=O)NCc4ccncc4)cc3)oc2C)cc1` [Example 6, 4-(5-Methyl-4-{[(4-methylphenyl)sulfonyl]methyl}-1,3-oxazol-2-yl)-N-(4-pyridinylmethyl)benzamide] has a melting point of 169 to 172 °C. In the case of `Cc1ccc(S(=O)(=O)Cc2nc(-c3ccc(C(=O)N(C)Cc4cccnc4)cc3)oc2C)cc1` [Example 7, N-Methyl-4-(5-methyl-4-{[(4-methylphenyl)sulfonyl]methyl}-1,3-oxazol-2-yl)-N-(3-pyridinylmethyl)benzamide], the melting point is reported as 77 to 80 °C. With `Cc1ccc(S(=O)(=O)Cc2nc(-c3ccc(C(=O)NCCc4cccnc4)cc3)oc2C)cc1` [Example 8, 4-(5-Methyl-4-{[(4-methylphenyl)sulfonyl]methyl}-1,3-oxazol-2-yl)-N-[2-(3-pyridinyl)ethyl]benzamide] the melting point was 207 to 208 °C. `Cc1ccc(S(=O)(=O)Cc2nc(-c3ccc(C(=O)NCc4cnccn4)cc3)oc2C)cc1` [Example 9, 4-(5-Methyl-4-{[(4-methylphenyl)sulfonyl]methyl}-1,3-oxazol-2-yl)-N-(2-pyrazinylmethyl)benzamide] showed a melting point of 204 to 206 °C. `Cc1ccc(S(=O)(=O)Cc2nc(-c3ccc(C(=O)NCc4nccn4C)cc3)oc2C)cc1` [Example 10, N-[(1-Methyl-1H-imidazol-2-yl)methyl]-4-(5-methyl-4-{[(4-methylphenyl)sulfonyl]methyl}-1,3-oxazol-2-yl)benzamide] showed a melting point of 190 to 192 °C. For `Cc1ccc(S(=O)(=O)Cc2nc(-c3ccc(C(=O)NCc4cncn4C)cc3)oc2C)cc1` [Example 11, N-[(1-Methyl-1H-imidazol-5-yl)methyl]-4-(5-methyl-4-{[(4-methylphenyl)sulfonyl]methyl}-1,3-oxazol-2-yl)benzamide], the melting point was 240 to 242 °C. `Cc1oc(-c2ccc(C(=O)NCc3cccnc3)cc2)nc1CS(=O)(=O)c1ccccc1` [Example 12, 4-[5-Methyl-4-[(phenylsulfonyl)methyl]-1,3-oxazol-2-yl]-N-(3-pyridinylmethyl)benzamide] gave a melting point of 196 to 198 °C. Work on `Cc1oc(-c2ccc(C(=O)NCc3cccnc3)cc2)nc1CS(=O)(=O)c1ccc(Cl)cc1` [Example 13, 4-(4-{[(4-Chlorophenyl)sulfonyl]methyl}-5-methyl-1,3-oxazol-2-yl)-N-(3-pyridinylmethyl)benzamide] yielded a melting point of 220 to 222 °C. Work on `Cc1oc(-c2ccc(C(=O)NCc3cccnc3)cc2)nc1CS(=O)(=O)c1ccc(C(C)(C)C)cc1` [Example 14, 4-(4-{[(4-tert-Butylphenyl)sulfonyl]methyl}-5-methyl-1,3-oxazol-2-yl)-N-(3-pyridinylmethyl)benzamide] yielded a melting point of 177 to 180 °C. Work on `Cc1cc(C)cc(S(=O)(=O)Cc2nc(-c3ccc(C(=O)NCc4cccnc4)cc3)oc2C)c1` [Example 15, 4-(4-{[(3,5-Dimethylphenyl)sulfonyl]methyl}-5-methyl-1,3-oxazol-2-yl)-N-(3-pyridinylmethyl)benzamide] yielded a melting point of 188 to 190 °C. Compound `Cc1oc(-c2ccc(C(=O)NCc3cccnc3)cc2)nc1CS(=O)(=O)c1ccc(Br)cc1` [Example 16, 4-(4-{[(4-Bromophenyl)sulfonyl]methyl}-5-methyl-1,3-oxazol-2-yl)-N-(3-pyridinylmethyl)benzamide] has a melting point of 224 to 227 °C. In the case of `Cc1cccc(S(=O)(=O)Cc2nc(-c3ccc(C(=O)NCc4cccnc4)cc3)oc2C)c1` [Example 17, 4-(5-Methyl-4-{[(3-methylphenyl)sulfonyl]methyl}-1,3-oxazol-2-yl)-N-(3-pyridinylmethyl)benzamide], the melting point is reported as 179 to 181 °C. For `COc1ccc(S(=O)(=O)Cc2nc(-c3ccc(C(=O)NCc4cccnc4)cc3)oc2C)cc1` [Example 18, 4-(4-{[(4-Methoxyphenyl)sulfonyl]methyl}-5-methyl-1,3-oxazol-2-yl)-N-(3-pyridinylmethyl)benzamide], the melting point was 189 to 191 °C. `COc1cccc(S(=O)(=O)Cc2nc(-c3ccc(C(=O)NCc4cccnc4)cc3)oc2C)c1` [Example 19, 4-(5-Methyl-4-{[(3-methoxyphenyl)sulfonyl]methyl}-1,3-oxazol-2-yl)-N-(3-pyridinylmethyl)benzamide] showed a melting point of 143 to 145 °C. `COc1ccc(S(=O)(=O)Cc2nc(-c3ccc(C(=O)NCc4cccnc4)cc3)oc2C)cc1OC` [Example 20, 4-(4-{[(3,4-Dimethoxyphenyl)sulfonyl]methyl}-5-methyl-1,3-oxazol-2-yl)-N-(3-pyridinylmethyl)benzamide] gave a melting point of 104 to 108 °C. Compound `Cc1oc(-c2ccc(C(=O)NCc3cccnc3)cc2)nc1CS(=O)(=O)c1ccc(F)cc1` [Example 22, 4-(4-{[(4-Fluorophenyl)sulfonyl]methyl}-5-methyl-1,3-oxazol-2-yl)-N-(3-pyridinylmethyl)benzamide] has a melting point of 218 to 220 °C. With `Cc1oc(-c2ccc(C(=O)NCc3cccnc3)cc2)nc1CS(=O)(=O)c1ccc(N2CCN(C)CC2)cc1` [Example 23, 4-[5-Methyl-4-({[4-(4-methyl-1-piperazinyl)phenyl]sulfonyl}methyl)-1,3-oxazol-2-yl]-N-(3-pyridinylmethyl)benzamide] the melting point was 210 to 215 °C. For `Cc1oc(-c2ccc(C(=O)NCc3cccnc3)cc2)nc1CS(=O)(=O)c1ccc(N2CCOCC2)cc1` [Example 24, 4-[5-Methyl-4-({[4-(4-morpholinyl)phenyl]sulfonyl}methyl)-1,3-oxazol-2-yl]-N-(3-pyridinylmethyl)benzamide], the melting point was 208 to 210 °C. Work on `Cc1ccc(S(=O)(=O)Cc2csc(-c3ccc(C(=O)NCc4cccnc4)cc3)n2)cc1` [Example 25, 4-(4-{[(4-Methylphenyl)sulfonyl]methyl}-1,3-thiazol-2-yl)-N-(3-pyridinylmethyl)benzamide] yielded a melting point of 178 to 181 °C. In the case of `Cc1oc(-c2ccc(C(=O)NCc3ccccc3)cc2)nc1CS(=O)(=O)c1ccc(Br)cc1` [Example 27, N-Benzyl-4-(4-{[(4-bromophenyl)sulfonyl]methyl}-5-methyl-1,3-oxazol-2-yl)benzamide], the melting point is reported as 234 to 237 °C. In the case of `O=C(Nc1cccnc1)c1ccc(CNS(=O)(=O)c2ccc(Cl)nc2)cc1` [II-2, 4-({[(6-Chloro-3-pyridinyl)sulfonyl]amino}methyl)-N-(3-pyridinyl)benzamide], the melting point is reported as 226 to 228 °C. `Cc1ncc(S(=O)(=O)NCc2ccc(C(=O)Nc3cccnc3)cc2)n1C` [II-6, 4-({[(1,2-Dimethyl-1H-imidazol-5-yl)sulfonyl]amino}methyl)-N-(3-pyridinyl)benzamide] showed a melting point of 238 to 240 °C. `O=C(Nc1cccnc1)c1ccc(CNS(=O)(=O)c2nnc[nH]2)cc1` [II-7, N-(3-pyridinyl)-4-{[(4H-1,2,4-triazol-3-ylsulfonyl)amino]methyl}benzamide] gave a melting point of 266 to 269 °C.

Tested on: RCC4/VHL
Assay: XTT cell viability assay, RCC4 with VHL-reintroduced (RCC4/VHL) versus RCC4, selectivity ratio
Format: cell-based
Details: second TABLE 1 (Examples 39-55)
Procedure: RCC4 parental and RCC4 with VHL-reintroduced (RCC4/VHL), SN12C and SN12C-CSCG-VHL shRNA were maintained in DMEM supplemented with 10% FCS.
For 2,3-bis[2-methoxy-4-nitro-5-sulfophenyl]-2H-tetrazolium-5-carboxanilide (XTT) assays, five thousand cells were plated in 96-well plates. The next day, vehicle (DMSO) or drug was added by serial dilution. Four days later, media were aspirated, XTT solution (0.3 mg/ml of XTT (Sigma), 2.65 mg/ml N-methyl dibenxopyrazine methyl sulfate (Simga) in phenol red-free media) was added, and the plates were incubated at 37° C. for 1-2 hours. Metabolism of XTT was quantified by measuring the absorbance at 450 nm. IC50s were calculated using linear interpolation. For clonogenic survival assays, three hundred cells were plated per 60 mm tissue culture dish. The cells were allowed to attach overnight and then treated with vehicle or drug for 14 days. Colonies were fixed and stained with crystal violet (0.1% crystal violet in 95% ethanol). All conditions were measured in triplicate and each experiment was done in duplicate or triplicate. To determine necrosis, cells were treated with drug for a given time point. Media and cells were collected, centrifugated, and resuspended in 0.4% trypan blue (Invitrogen). Live and dead cells were counted on a hematocytometer.
The designation A reflects an IC50 of <1 nM; B reflects an IC50 ranging from 1 to 20 nM; and C is an IC50 of >20 nM. The designation “a” reflects a ratio of RCC4/RCC-VHL+ ranging from 1 to ≦10; “b” reflects from 10 to ≦100; “c” reflects a ratio of >100. Compounds 1-29 have an IC50 value of ≦10 μM when tested in the above assay.
With `Cc1oc(-c2ccc(C(=O)NCc3cccnc3)cc2)nc1CS(=O)(=O)C1CCNCC1` [Example 39, 4-(5-Methyl-4-((piperidin-4-ylsulfonyl)methyl)oxazol-2-yl)-N-(pyridin-3-ylmethyl)benzamide] the “Ratio (IC50 RCC4 Proficient VHL)/IC50 RCC4 Deficient VHL)” value (“Ratio” for short) was “b (from 10 to ≦100)”. For `Cc1oc(-c2ccc(C(=O)NCc3cccnc3)cc2)nc1CS(=O)(=O)C1CCN(C)CC1` [Example 40, 4-(5-Methyl-4-((1-methylpiperidin-4-ylsulfonyl)methyl)oxazol-2-yl)-N-(pyridin-3-ylmethyl)benzamide], the “Ratio” value was “b (from 10 to ≦100)”. In the case of `Cc1oc(-c2ccc(C(=O)NCc3cccnc3)cc2)nc1CS(=O)(=O)[C@H]1CC[C@@H](N2CCCC2)CC1` [Example 42], the “Ratio” value is reported as “b (from 10 to ≦100)”. For `Cc1oc(-c2ccc(C(=O)NCc3cccnc3)cc2)nc1CS(=O)(=O)[C@H]1CC[C@@H](N2CCCCC2)CC1` [Example 43], the “Ratio” value was “b (from 10 to ≦100)”.
